Results reported in patent publication US7829304B2, “Compounds and related methods for mutant p53 reactivation” (Northwestern University, priority 2003, dated 2010).
“Also recorded” adds a separate entry of the source.

Legend:
[1] = system: Saos2 cell lines expressing mutant p53 (Saos2-175, Saos2-281); test: Cellular growth studies on Saos-2 cells expressing mutant p53; type: cell-based, human; conditions: for selective growth arrest/killing of cells expressing mutant p53 (in words): Saos-2 cells with mutant p53 versus p53-null cells
Method: (§1) Cellular growth studies were performed on Saos-2 cells, derived from a human osteosarcoma cancer cell line, according to the method described in Example 44. The cells had either no p53 (null) or mutant (mt) p53 at residues 175 and/or 281 (R175H and […], respectively). Selective arrest of mutant cells indicates good anticancer activity.
Cellular growth studies were performed on Saos2 cells. Human osteosarcoma Saos2 cells are devoid of endogenous p53 due to biallelic deletion of the p53 gene. Previously, a series of Saos2 cell lines were engineered to express several human p53 mutants that are commonly found in human cancers. The derivative Saos2 cell lines used in the present study included the following: 1) Saos2-CMV, which is the vector-only control cell line that is negative for p53 protein. 2) Saos2-175, which expresses the human mutant p53-R175H protein. The 175H substitution disrupts the structure of the protein resulting in the loss of DNA binding and tumor suppressor function. This mutation is found in ˜6% of all cancers of diverse tumor types. 3) Saos2-273, which expressed the human mutant p53-R273H protein. The 273H substitution eliminates a DNA contact point resulting in the loss of DNA binding and tumor suppressor function. This mutation represents the second most common hot spot mutation and is found in nearly 8% of all cancers. 4) Saos2-281, which expresses the human mutant p53-D281G protein. This mutation disrupts a stabilizing salt bridge resulting in the loss of DNA binding and tumor suppressor function.
The cells were grown at 37° C. in Dulbecco's modified Eagle's medium (Cambrex, East Rutherford, N.J.) supplemented with 10% fetal bovine serum (Hyclone, Logan, Utah) under 5% CO2. The cells were plated at 1×10^6 per 10 cm tissue culture plates and treated with escalating doses of the indicated compounds (Table 1) for varying lengths of time. Routine concentrations of the synthesized compounds ranged from 1-75 μM. After 72-96 hours, the cells were refed with fresh medium containing the appropriate concentration of the compound. In addition, parallel cultures were prepared and maintained under identical conditions without drug treatment as negative controls. The cells were microscopically analyzed during the course of treatment and the overall effectiveness of the drug treatment on cell growth and survival was assessed on day 7 by staining the cells with Giemsa Stain GS500 (SIGMA, St. Louis, Mo.). Prima-1 was included in all experiments for comparison purposes. […] The few Saos2 mutant p53 cells remaining after treatment with compound 7 were quite large and flat, reminiscent of a differentiated cell.

[2] = system: Saos2-CMV cells (p53-null, vector-only control); test: Cellular growth studies on p53-null Saos2 control cells; type: cell-based, human
Method: as §1
Cellular growth studies were performed on Saos2 cells. Human osteosarcoma Saos2 cells are devoid of endogenous p53 due to biallelic deletion of the p53 gene. Previously, a series of Saos2 cell lines were engineered to express several human p53 mutants that are commonly found in human cancers. The derivative Saos2 cell lines used in the present study included the following: 1) Saos2-CMV, which is the vector-only control cell line that is negative for p53 protein. 2) Saos2-175, which expresses the human mutant p53-R175H protein. […]
The cells were grown at 37° C. in Dulbecco's modified Eagle's medium (Cambrex, East Rutherford, N.J.) supplemented with 10% fetal bovine serum (Hyclone, Logan, Utah) under 5% CO2. […] The cells were microscopically analyzed during the course of treatment and the overall effectiveness of the drug treatment on cell growth and survival was assessed on day 7 by staining the cells with Giemsa Stain GS500 (SIGMA, St. Louis, Mo.). […]

Row | SMILES | selective growth arrest/killing of cells expressing mutant p53 (in words) [1] | further results
1 | CC(=O)OCC(C)(N)C(=O)c1ccccc1.Cl (stereo not shown) [Compound 17, 2-Amino-2-methyl-3-oxo-3-phenylpropyl acetate hydrochloride] | eliminates the desired activity | 
2 | CC(=O)OCC(N)(COC(C)=O)C(=O)c1ccccc1.Cl [Compound 4, 3-Acetoxy-2-(acetoxymethyl)-1-oxo-1-phenylpropan-2-aminium chloride] | activity at lower concentrations, as compared to PRIMA-1; also recorded: showed selectivity for R281G mutants | minimal effective concentration ([1]; Homo sapiens, 168 h, Mutant: 281, Saos-2 cells, concentration at which active, doses 1-75 μM, cell growth and survival assessed on day 7 by Giemsa stain): 10 µM
3 | CC(=O)OC[C@@H](N)C(=O)c1ccccc1.Cl [Compound 8, (R)-3-Acetoxy-1-oxo-1-phenylpropan-2-aminium chloride] | improved activity over (±)-7 | 
4 | CC(=O)OCC(N)C(=O)c1ccccc1.Cl (racemic) [Compound 7, 3-Acetoxy-1-oxo-1-phenylpropan-2-aminium chloride] | activity at lower concentrations, as compared to PRIMA-1; also recorded: efficiently and selectively inhibited the growth of the Saos2 cell lines expressing mutant p53; also recorded: particularly effective at selectively killing cells expressing R175H and R281G p53 mutants at lower concentrations than PRIMA-1 | effect on growth of CMV-only cells which lack p53 protein ([2]; Saos2-CMV, assessed on day 7 by Giemsa stain): no effect
5 | CC(=O)OCC(N)C(=O)N1CCOCC1.Cl (stereo not shown) [Compound 15, 3-Acetoxy-1-morpholino-1-oxopropan-2-aminium chloride] | the desired activity is lost | 
6 | O=C1C2CCN(CC2)C1(CO)CO [PRIMA-1, reference compound] |  | toxic to p53-null cells at concentration ([2]; p53-null Saos-2 cells): 75 µM
7 | COC(=O)C(N)COC(C)=O.Cl (stereo not shown) [Compound 14, 3-Acetoxy-1-methoxy-1-oxopropan-2-aminium chloride] | the desired activity is lost | 
8 | CNC(COC(C)=O)C(=O)c1ccccc1.Cl (stereo not shown) [Compound 16, 2-(Methylamino)-3-oxo-3-phenylpropyl acetate hydrochloride] |  | selective growth arrest/killing of cells expressing mutant p53 (in words) ([1]; acetate hydrochloride): the desired activity is lost; also recorded: eliminates the desired activity
